Assay results reported in patent US20100168421A1, “A NEW PEPTIDE DEFORMYLASE INHIBITOR COMPOUND AND MANUFACTURING PROCESS THEREOF” (priority 2007, published 2010).
Converted amounts (≈) assume the structure as drawn. Like-named read-outs stand apart in the source and are kept apart here.

Tests used:
PDF enzyme [1] = target: PDF enzyme (Streptococcus pyogenes serotype M1, UniProt P68771); test: PDF/FDH coupled enzyme assay, Streptococcus pyogenes; format: biochemical
PDF enzyme [2] = target: PDF enzyme (Escherichia coli, UniProt P0A6K3); test: PDF/FDH coupled enzyme assay, E. coli; format: biochemical
Protocol: Activities of PDF enzyme for E. coli and S. aureus were determined using PDF/FDH coupled assay. In this coupled assay, the formate released by PDF from its substrate formyl-Methionine-Alanine-Serine (fMAS) is oxidized by coupling enzyme formate dehydrogenase (FDH), reducing one molecule of NAD^+ to NADH, which is measured absorption at 340 nm.

PDF enzyme [3] = target: T1, PDF enzyme (Streptococcus pneumoniae serotype 4, UniProt Q9F2F0); test: PDF/FDH coupled enzyme assay, Streptococcus Pneumoniae; format: biochemical; conditions: substrate fMAS, absorption at 340 nm
T1 sequence (Q9F2F0 1-203): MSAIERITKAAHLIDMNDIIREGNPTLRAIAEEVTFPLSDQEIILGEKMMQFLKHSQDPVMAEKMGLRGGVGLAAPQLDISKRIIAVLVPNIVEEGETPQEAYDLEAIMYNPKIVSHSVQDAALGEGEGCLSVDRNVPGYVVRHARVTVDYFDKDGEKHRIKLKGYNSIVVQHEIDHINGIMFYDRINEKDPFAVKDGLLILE

[4] = test system: Vancomycin-resistant Enterococcus faecium; test: MIC microdilution, VR E. faecium; format: cell-based; conditions: read-out: MIC Vancomycin-resistant Enterococcus faecium
Protocol: (§1) Minimum inhibitory concentrations (MICs) were determined using the microdilution method in 96-well format plates. Each of the compounds of Examples was dissolved in dimethyl sulfoxide to a concentration of 2 mg/mL and stored at 4° C. until used. They were diluted in Mueller-Hinton Broth (MHB) and used for MIC determination. The range of concentrations tested was […] final concentration using a two-fold dilution system. Plates were incubated at 37° C. and MIC were recorded after 24 hours of incubation for bacteria.
(§2) Linezolid and vancomycin were used as standard antibiotics, respectively.

[5] = test system: Streptococcus Pneumoniae Pen NS; test: MIC microdilution, S. Pneumoniae Pen NS; format: cell-based; conditions: read-out: MIC Streptococcus Pneumoniae Pen NS
Protocol: as §1, §2

[6] = test system: Streptococcus Pneumoniae Pen S; test: MIC microdilution, S. Pneumoniae Pen S; format: cell-based; conditions: read-out: MIC Streptococcus Pneumoniae Pen S
Protocol: as §1, §2

[7] = test system: Vancomycin-resistant Enterococcus faecalis; test: MIC microdilution, VR E. faecalis; format: cell-based; conditions: read-out: MIC Vancomycin-resistant Enterococcus faecalis
Protocol: as §1, §2

Streptococcus pyogenes = test: MIC microdilution, S. pyogenes; format: cell-based; conditions: read-out: MIC Streptococcus pyogenes
Protocol: as §1, §2

[8] = microdilution, Mueller-Hinton Broth, 37° C., 24 hours

PDF enzyme (Escherichia coli, UniProt P0A6K3), sequence (P0A6K3 whole entry): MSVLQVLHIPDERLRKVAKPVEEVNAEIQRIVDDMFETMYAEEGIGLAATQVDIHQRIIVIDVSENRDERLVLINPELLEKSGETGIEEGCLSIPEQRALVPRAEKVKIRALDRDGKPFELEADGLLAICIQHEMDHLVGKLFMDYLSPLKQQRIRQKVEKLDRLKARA
PDF enzyme (Streptococcus pyogenes serotype M1, UniProt P68771), sequence (P68771 whole entry): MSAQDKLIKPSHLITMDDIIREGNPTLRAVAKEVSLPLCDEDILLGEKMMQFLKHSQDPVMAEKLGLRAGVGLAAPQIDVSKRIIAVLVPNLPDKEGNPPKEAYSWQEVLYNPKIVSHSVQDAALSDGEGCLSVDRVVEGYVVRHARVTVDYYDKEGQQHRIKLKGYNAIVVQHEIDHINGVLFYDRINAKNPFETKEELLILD

Compound | IC50 (PDF enzyme [1]) | IC50 (PDF enzyme [2]) | IC50 (PDF enzyme [3]) | MIC [4, 8] | MIC [5, 8] | MIC [6, 8] | MIC [7, 8] | MIC (Streptococcus pyogenes; [8]) | MIC ([4]; 24 h) | MIC ([5]; 24 h) | MIC ([6]; 24 h) | MIC ([7]; 24 h) | MIC (Streptococcus pyogenes; 24 h)
Cc1ccc(CNC2CCN(C(=O)[C@@H](NC(=O)[C@@H](CC(=O)NO)CC3CCCC3)C(C)(C)C)CC2)cc1 [Example 1, (R)-2-Cyclopentylmethyl-N^1-{(S)-2,2-dimethyl-1-[4-(4-methyl-benzylamino)-piperidine-1-carbonyl]-propyl}-N^4-hydroxy-succinamide] | 70 nM | 150 nM | 65 nM |  |  |  |  |  |  |  |  |  | 
CC(C)(C)[C@H](NC(=O)[C@H](CC1CCCC1)CN(O)C=O)C(=O)N1CCC(NCc2ccc(C#N)cc2)CC1 [Example 3, (R)-N-{(S)-1-[4-(4-Cyano-benzylamino)-piperidine-1-carbonyl]-2,2-dimethyl-propyl}-2-cyclopentylmethyl-3-(formyl-hydroxy-amino)-propionamide] |  |  |  | 0.4 µg/mL (≈ 0.761 µM) | 0.4 µg/mL (≈ 0.761 µM) | 0.1 µg/mL (≈ 0.19 µM) | 0.8 µg/mL (≈ 1.52 µM) | 0.2 µg/mL (≈ 0.38 µM) |  |  |  |  | 
CC(C)(C)[C@H](NC(=O)[C@H](CC1CCCC1)CN(O)C=O)C(=O)N1CCC(NCc2ccc(F)cc2)CC1 [Example 4, (R)-2-Cyclopentylmethyl-N-{(S)-1-[4-(4-fluoro-benzylamino)-piperidine-1-carbonyl]-2,2-dimethyl-propyl}-3-(formyl-hydroxy-amino)-propionamide] |  |  |  | 0.4 µg/mL (≈ 0.771 µM) | 0.4 µg/mL (≈ 0.771 µM) | 0.2 µg/mL (≈ 0.386 µM) | 3.1 µg/mL (≈ 5.98 µM) | 0.4 µg/mL (≈ 0.771 µM) |  |  |  |  | 
COC(=O)c1ccc(CNC2CCN(C(=O)[C@@H](NC(=O)[C@H](CC3CCCC3)CN(O)C=O)C(C)(C)C)CC2)cc1 [Example 7, 4-[(1-{(S)-2-[(R)-2-Cyclopentylmethyl-3-(formyl-hydroxy-amino)-propionylamino]-3,3-dimethyl-butyryl}-piperidin-4-ylamino)-methyl]-benzoic acid methyl ester] |  |  |  | 3.1 µg/mL (≈ 5.55 µM) | 1.6 µg/mL (≈ 2.86 µM) | 0.4 µg/mL (≈ 0.716 µM) | 6.3 µg/mL (≈ 11.3 µM) | 0.8 µg/mL (≈ 1.43 µM) |  |  |  |  | 
CC(C)(C)[C@H](NC(=O)[C@H](CC1CCCC1)CN(O)C=O)C(=O)N1CCC(NCc2ccccn2)CC1 [Example 9, (R)-2-Cyclopentylmethyl-N-((S)-2,2-dimethyl-1-{4-[(pyridine-2-ylmethyl)-amino]-piperidine-1-carbonyl}-propyl)-3-(formyl-hydroxy-amino)-propionamide] |  |  |  | 12.5 µg/mL (≈ 24.9 µM) | 1.6 µg/mL (≈ 3.19 µM) | 1.6 µg/mL (≈ 3.19 µM) | 12.5 µg/mL (≈ 24.9 µM) | 0.8 µg/mL (≈ 1.59 µM) |  |  |  |  | 
CC(C)(C)[C@H](NC(=O)[C@H](CC1CCCC1)CN(O)C=O)C(=O)N1CCC(NCc2ccc(F)cc2F)CC1 [Example 10, (R)-2-Cyclopentylmethyl-N-{(S)-1-[4-(2,4-difluoro-benzylamino)-piperidine-1-carbonyl]-2,2-dimethyl-propyl}-3-(formyl-hydroxy-amino)-propionamide] | 83 nM | 122 nM | 55 nM |  |  |  |  |  |  |  |  |  | 
COc1ccc(CNC2CCN(C(=O)[C@@H](NC(=O)[C@H](CC3CCCC3)CN(O)C=O)C(C)(C)C)CC2)c(OC)c1 [Example 12, (R)-2-Cyclopentylmethyl-N-{(S)-1-[4-(2,4-dimethoxy-benzylamino)-piperidine-1-carbonyl]-2,2-dimethyl-propyl}-3-(formyl-hydroxy-amino)-propionamide] |  |  |  | 3.1 µg/mL (≈ 5.53 µM) | 0.8 µg/mL (≈ 1.43 µM) | 0.2 µg/mL (≈ 0.357 µM) | 6.3 µg/mL (≈ 11.2 µM) | 0.2 µg/mL (≈ 0.357 µM) |  |  |  |  | 
CC(C)(C)[C@H](NC(=O)[C@H](CC1CCCC1)CN(O)C=O)C(=O)N1CCC(NCc2cc(F)c(F)cc2F)CC1 [Example 14, (R)-2-Cyclopentylmethyl-N-{(S)-2,2-dimethyl-1-[4-(2,4,5-trifluoro-benzylamino)-piperidine-1-carbonyl]-propyl}-3-(formyl-hydroxy-amino)-propionamide] |  |  |  | 0.2 µg/mL (≈ 0.361 µM) | 0.4 µg/mL (≈ 0.721 µM) | 0.1 µg/mL (≈ 0.18 µM) | 1.6 µg/mL (≈ 2.88 µM) | 0.1 µg/mL (≈ 0.18 µM) |  |  |  |  | 
CC(C)(C)[C@H](NC(=O)[C@H](CC1CCCC1)CN(O)C=O)C(=O)N1CCC(Nc2ccccc2)CC1 [Example 15, (R)-2-Cyclopentylmethyl-N-[(S)-2,2-dimethyl-1-(4-phenylamino-piperidine-1-carbonyl)-propyl]-3-(formyl-hydroxy-amino)-propionamide] |  |  |  |  |  |  |  |  | 0.4 µg/mL (≈ 0.822 µM) | 0.4 µg/mL (≈ 0.822 µM) | 0.1 µg/mL (≈ 0.205 µM) | 1.6 µg/mL (≈ 3.29 µM) | 0.1 µg/mL (≈ 0.205 µM)
CC(C)(C)[C@H](NC(=O)[C@H](CC1CCCC1)CN(O)C=O)C(=O)N1CCC(Nc2ccc(C#N)cc2)CC1 [Example 16, (R)-N-{(S)-1-[4-(4-Cyano-phenylamino)-piperidine-1-carbonyl]-2,2-dimethyl-propyl}-2-cyclopentylmethyl-3-(formyl-hydroxy-amino)-propionamide] |  |  |  | 0.4 µg/mL (≈ 0.782 µM) | 1.6 µg/mL (≈ 3.13 µM) | 0.1 µg/mL (≈ 0.195 µM) | 3.1 µg/mL (≈ 6.06 µM) | 0.1 µg/mL (≈ 0.195 µM) |  |  |  |  | 
Cc1ccc(NC2CCN(C(=O)[C@@H](NC(=O)[C@H](CC3CCCC3)CN(O)C=O)C(C)(C)C)CC2)cc1 [Example 18, (R)-2-Cyclopentylmethyl-N-[(S)-2,2-dimethyl-1-(4-p-tolylamino-piperidine-1-carbonyl)-propyl]-3-(formyl-hydroxy-amino)-propionamide] |  |  |  | 0.4 µg/mL (≈ 0.799 µM) | 0.4 µg/mL (≈ 0.799 µM) | 0.2 µg/mL (≈ 0.399 µM) | 3.1 µg/mL (≈ 6.19 µM) | 0.1 µg/mL (≈ 0.2 µM) |  |  |  |  | 
COc1ccc(NC2CCN(C(=O)[C@@H](NC(=O)[C@H](CC3CCCC3)CN(O)C=O)C(C)(C)C)CC2)cc1 [Example 19, (R)-2-Cyclopentylmethyl-3-(formyl-hydroxy-amino)-N-{(S)-1-[4-(4-methoxy-phenylamino)-piperidine-1-carbonyl]-2,2-dimethyl-propyl}-propionamide] |  |  |  | 1.6 µg/mL (≈ 3.1 µM) | 0.2 µg/mL (≈ 0.387 µM) | 0.4 µg/mL (≈ 0.774 µM) | 3.1 µg/mL (≈ 6 µM) | 0.2 µg/mL (≈ 0.387 µM) |  |  |  |  | 
COC(=O)c1ccc(NC2CCN(C(=O)[C@@H](NC(=O)[C@H](CC3CCCC3)CN(O)C=O)C(C)(C)C)CC2)cc1 [Example 21, 4-(1-[(S)-2-[(R)-2-Cyclopentylmethyl-3-(formyl-hydroxy-amino)-propionylamino]-3,3-dimethyl-butyryl]-piperidin-4-ylamino)-benzoic acid methyl ester] |  |  |  | 1.6 µg/mL (≈ 2.94 µM) | 0.8 µg/mL (≈ 1.47 µM) | 0.2 µg/mL (≈ 0.367 µM) | 6.3 µg/mL (≈ 11.6 µM) | 0.4 µg/mL (≈ 0.734 µM) |  |  |  |  | 
CC(C)(C)[C@H](NC(=O)[C@H](CC1CCCC1)CN(O)C=O)C(=O)N1CCC(Nc2ccc(F)cc2F)CC1 [Example 23, (R)-2-Cyclopentylmethyl-N-{(S)-1-[4-(2,4-difluoro-phenylamino)-piperidine-1-carbonyl]-2,2-dimethyl-propyl}-3-(formyl-hydroxy-amino)-propionamide] |  |  |  |  |  |  |  |  | 0.2 µg/mL (≈ 0.383 µM) | 0.2 µg/mL (≈ 0.383 µM) | 0.05 µg/mL (≈ 0.0957 µM) | 3.1 µg/mL (≈ 5.93 µM) | 0.1 µg/mL (≈ 0.191 µM)
COc1ccc(NC2CCN(C(=O)[C@@H](NC(=O)[C@H](CC3CCCC3)CN(O)C=O)C(C)(C)C)CC2)c(OC)c1 [Example 24, (R)-2-Cyclopentylmethyl-N-{(S)-1-[4-(2,4-dimethoxy-phenylamino)-piperidine-1-carbonyl]-2,2-dimethyl-propyl}-3-(formyl-hydroxy-amino)-propionamide] |  |  |  | 0.8 µg/mL (≈ 1.46 µM) | 0.4 µg/mL (≈ 0.732 µM) | 0.2 µg/mL (≈ 0.366 µM) | 6.3 µg/mL (≈ 11.5 µM) | 0.1 µg/mL (≈ 0.183 µM) |  |  |  |  | 
CC(C)(C)[C@H](NC(=O)[C@H](CC1CCCC1)CN(O)C=O)C(=O)N1CCC(Nc2ccc(N3CCOCC3)c(F)c2)CC1 [Example 25, (R)-2-Cyclopentylmethyl-N-{(S)-1-[4-(3-fluoro-4-morpholin-4-yl-phenylamino)-piperidine-1-carbonyl]-2,2-dimethyl-propyl}-3-(formyl-hydroxy-amino)-propionamide] |  |  |  | 3.1 µg/mL (≈ 5.26 µM) | 1.6 µg/mL (≈ 2.71 µM) | 0.4 µg/mL (≈ 0.678 µM) | 12.5 µg/mL (≈ 21.2 µM) | 0.8 µg/mL (≈ 1.36 µM) |  |  |  |  | 
CC(=O)NC[C@H]1CN(c2ccc(N3CCOCC3)c(F)c2)C(=O)O1 [Linezolid, reference compound] |  |  |  | 1.6 µg/mL (≈ 4.74 µM) | 0.8 µg/mL (≈ 2.37 µM) | 0.8 µg/mL (≈ 2.37 µM) | 0.8 µg/mL (≈ 2.37 µM) | 0.8 µg/mL (≈ 2.37 µM) |  |  |  |  | 
CN[C@H](CC(C)C)C(=O)N[C@H]1C(=O)N[C@@H](CC(N)=O)C(=O)N[C@H]2C(=O)N[C@H]3C(=O)N[C@H](C(=O)N[C@H](C(=O)O)c4cc(O)cc(O)c4-c4cc3ccc4O)[C@H](O)c3ccc(c(Cl)c3)Oc3cc2cc(c3O[C@@H]2O[C@H](CO)[C@@H](O)[C@H](O)[C@H]2O[C@H]2C[C@](C)(N)[C@H](O)[C@H](C)O2)Oc2ccc(cc2Cl)[C@H]1O [Vancomycin, reference compound] |  |  |  |  |  |  |  |  | > 50 µg/mL | 0.4 µg/mL (≈ 0.276 µM) | 0.2 µg/mL (≈ 0.138 µM) | > 50 µg/mL | 0.4 µg/mL (≈ 0.276 µM)
